Assay results taken from patent publication US8987277B2, “Fungicide” (priority 2010, dated 2015).
In brackets after ≈: the same amount, converted by molar mass.

Legend:
[1] = system: C. albicans; assay: Minimum inhibiting concentration towards unicellular fungi, serial dilution; format: cell-based; details: Sabouraud's agar
Protocol: (§1) Discovering the Minimum Inhibiting Concentration of the Inventive Substance (Forms A and B) Towards Unicellular Fungi
(§2) Fungi were grown in Sabouraud's agar. The effect of the substance was assessed by means of the serial dilution method.

[2] = system: C. glabrata; assay: as above; format: cell-based; details: Sabouraud's agar
Protocol: as §1, §2

[3] = system: C. krusei; assay: as above; format: cell-based; details: Sabouraud's agar
Protocol: as §1, §2

[4] = system: C. parapsilosis; assay: as above; format: cell-based; details: Sabouraud's agar
Protocol: as §1, §2

[5] = system: S. cerevisiae; assay: as above; format: cell-based; details: Sabouraud's agar
Protocol: as §1, §2

[6] = system: Aspergillus; assay: Minimum inhibiting concentration towards multicellular fungi; format: cell-based
From the text: (§3) Discovering the Minimum Inhibiting Concentration of the Inventive Agent Towards Multicellular Fungi

[7] = system: Mucor; assay: as above; format: cell-based
From the text: as §3

[8] = system: A. alternata; assay: Biocidal effect on spores of fungi that cause plant diseases and damage agricultural products; format: cell-based, Alternaria alternata; details: fungi spores (a mixture)
Protocol: (§4) Various fungi were used in the experiment—vegetative forms and spores of Alternaria alternata, Fusarium moniliforme, Botrytis spp. that cause diseases of plants and damage agricultural products. Biocidal properties were tested on spores of fungi cultures with optical density of the inoculated dose p E=0.310.

[9] = system: F. moniliforme; assay: as above; format: cell-based, Fusarium moniliforme; details: fungi spores (a mixture)
Protocol: as §4

[10] = system: Botrytis spp; assay: as above; format: cell-based; details: fungi spores (a mixture)
Protocol: as §4

[11] = system: Aspergillis niger; assay: Biocidal effect on spores of fungi that damage paper, wood and dyes; format: cell-based; details: fungi spores (a mixture)
Protocol: (§5) Various fungi were used in the experiment—vegetative forms and spores of Aspergillis niger, Penicillium ochro-chloron that damage paper, wood and dyes thereof.
(§6) Biocidal properties were tested on spores of fungi cultures with optical density of the inoculated dose p E=0.310.

[12] = system: Penicillium ochro-chloron; assay: as above; format: cell-based; details: fungi spores (a mixture)
Protocol: as §5, §6

[13] = system: Candida albicans strain 15; assay: Assessment of the fungicide effect, serial dilutions in microplates with neutralizer; format: cell-based; details: for Concentration that destroys the fungi (fungicide effect): Candida genus, exposure time 24 h
Protocol: (§7) Strains of fungi of Candida genus (Candida albicans strain 15) that are resistant towards disinfecting agents and trichophyton (Trichophiton gypseum), which were cultivated in Sabouraud's agar, were used as test microorganisms.
(§8) Forms A and B were dissolved in sterile distilled water.
(§9) The method of serial dilutions in microplates was used in the experiment. The dissolved substance was titrated in the culture medium, then the test microorganisms were introduced and after certain intervals of disinfection time the neutralizer was added, namely 0.1% solution of citric acid. After the exposure during 1-2 minutes the contents of each well were plated to solid culture media.
(§10) The following concentrations of the substance were studied: 0.1-0.05-0.025-0.0125% of the drug for action duration of 1, 3, 5, 10, 20, minutes and 1.0-1.5-3.0 and 24 h.
(§11) All inoculations were incubated at an optimum temperature during 24 hours.
(§12) The fungicide effect was assessed according to the presence or absence of growing microorganisms in the culture media.

[14] = system: Trichophiton gypseum; assay: as above; format: cell-based; details: for Concentration that destroys the fungi (fungicide effect): trichophyton genus, exposure time 24 h
Protocol: as §7, §8, §9, §10, §11, §12

[15] = read-out: Minimum inhibiting (biocidal) concentration (MIC) of the substance

| Compound | Minimum inhibiting (biocidal) concentration of the substance [8] [µg/mL] | Minimum inhibiting (biocidal) concentration of the substance [9] [µg/mL] | Minimum inhibiting (biocidal) concentration of the substance [10] [µg/mL] | Minimum inhibiting concentration [1] [µg/mL] | Minimum inhibiting concentration [2] [µg/mL] | Minimum inhibiting concentration [3] [µg/mL] | Minimum inhibiting concentration [4] [µg/mL] | Minimum inhibiting concentration [5] [µg/mL] | Minimum inhibiting concentration (MIC) [6] [µg/mL] | Minimum inhibiting concentration (MIC) [7] [µg/mL] | Minimum inhibiting (biocidal) concentration (MIC) of the substance [11] [µg/mL] | Minimum inhibiting (biocidal) concentration (MIC) of the substance [12] [µg/mL] | Concentration that destroys the fungi (fungicide effect) [13] [%] | Concentration that destroys the fungi (fungicide effect) [14] [%] | further results |
| --- | --- | --- | --- | --- | --- | --- | --- | --- | --- | --- | --- | --- | --- | --- | --- |
| OC(Cn1cncn1)(Cn1cncn1)c1ccc(F)cc1F [Fluconazole, 2-(2,4-difluorophenyl)-1,3-bis(1N-1,2,4-triazol-1-yl)-2-propanol, reference compound] | 32 | 64 | 64 | – | – | – | – | – | – | – | – | – | – | – | MIC ([1]; Candida albicans): 2 µg/mL (≈ 6.53 µM); MIC ([2]; Nakaseomyces glabratus): 64 µg/mL (≈ 209 µM); MIC ([3]; Pichia kudriavzevii): 32 µg/mL (≈ 104 µM); MIC ([4]; Lodderomyces parapsilosis): 0.25 µg/mL (≈ 0.816 µM); MIC ([5]; Saccharomyces cerevisiae): 0.125 µg/mL (≈ 0.408 µM); MIC [6]: 64 µg/mL (≈ 209 µM); MIC [7]: 64 µg/mL (≈ 209 µM); MIC [11, 15]: 64 µg/mL (≈ 209 µM); MIC [12, 15]: 64 µg/mL (≈ 209 µM); Fungicide effect (presence or absence of growth) ([13]; Candida, same conditions as the inventive substance): did not destroy the microbes; Fungicide effect (presence or absence of growth) ([14]; trichophyton, same conditions as the inventive substance): did not destroy the microbes |
| 2,4-dioxo-5-(2-hydroxy-3,5-dichlorobenzylidiene)amino-1,3-pyrimidine salt | 4.0 | 8.0 | 8.0 | 1 | 0.125 | 1 | 0.250 | 0.125 | 2 | 1 | 2.0 | 8.0 | 0.025 | 0.1 | – |
| Dimer of sodium salt of 2,4-dioxo-5-(2-hydroxy-3,5-dichlorobenzylidiene)amino-1,3-pyrimidine | 2.0 | 4.0 | 4.0 | 1 | 0.250 | 1 | 0.125 | 0.125 | 2 | 1 | 1.0 | 4.0 | 0.025 | 0.1 | – |
